The target of one test is T1, TLR8 (Homo sapiens, UniProt Q9NR97).
T1 construct: host or cells: HEK293 (HEK-BLUE-hTLR8)
T1 sequence (Q9NR97 27-1041): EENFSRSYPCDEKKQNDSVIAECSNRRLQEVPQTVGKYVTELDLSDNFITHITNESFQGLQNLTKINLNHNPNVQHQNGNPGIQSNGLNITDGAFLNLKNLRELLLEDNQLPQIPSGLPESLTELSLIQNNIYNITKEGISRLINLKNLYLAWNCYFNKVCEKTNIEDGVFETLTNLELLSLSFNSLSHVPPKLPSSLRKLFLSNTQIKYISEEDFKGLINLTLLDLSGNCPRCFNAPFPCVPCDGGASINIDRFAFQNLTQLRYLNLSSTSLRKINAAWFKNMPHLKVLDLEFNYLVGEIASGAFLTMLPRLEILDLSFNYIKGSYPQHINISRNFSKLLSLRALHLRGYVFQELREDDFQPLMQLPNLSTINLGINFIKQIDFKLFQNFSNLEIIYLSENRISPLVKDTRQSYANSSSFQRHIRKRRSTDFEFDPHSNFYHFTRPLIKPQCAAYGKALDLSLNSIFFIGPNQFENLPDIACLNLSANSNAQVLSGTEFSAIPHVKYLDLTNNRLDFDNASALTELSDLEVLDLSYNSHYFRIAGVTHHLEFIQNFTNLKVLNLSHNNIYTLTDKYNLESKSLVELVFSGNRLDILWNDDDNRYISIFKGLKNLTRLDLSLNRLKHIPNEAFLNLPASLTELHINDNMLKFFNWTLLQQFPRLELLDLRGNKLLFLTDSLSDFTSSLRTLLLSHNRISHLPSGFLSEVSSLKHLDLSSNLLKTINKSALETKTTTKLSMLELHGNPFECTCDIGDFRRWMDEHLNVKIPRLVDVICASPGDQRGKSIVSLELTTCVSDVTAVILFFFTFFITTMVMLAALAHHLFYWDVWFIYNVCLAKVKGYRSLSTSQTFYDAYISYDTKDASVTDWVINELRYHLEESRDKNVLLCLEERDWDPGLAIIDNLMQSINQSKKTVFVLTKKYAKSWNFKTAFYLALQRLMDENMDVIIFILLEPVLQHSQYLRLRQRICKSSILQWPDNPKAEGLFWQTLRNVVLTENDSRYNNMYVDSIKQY
In words: HEK-BLUE-hTLR8 cell SEAP reporter assay (Quanti-Blue). In kind it is cell-based. To be noted: HEK-BLUE-hTLR8 cells, 0.5 nM to 15 µM, 24 hours. As for the experimental part: (§1) In this experiment, the biological activity of TLR7 and TLR8 in the compound of formula I was detected using cell tests. This method was conducted in human embryonic kidney cells (HEK293) expressing TLR family members such as TLR4, TLR7, TLR8 or TLR9. TLR agonists activate TLRs, triggering the activation of downstream NF-kB, which in turn activates the secreted embryonic alkaline phosphatase (SEAP) reporter gene. The activity of SEAP was detected using the Quanti-Blue (InvivoGen) reagent, thereby reflecting the activities of TLR7 and TLR8 agonists.
(§2) The detailed experimental method was as follows: HEK-BLUE-hTLR7 and HEK-BLUE-hTLR8 cell lines were purchased from Invivogen Company and cultured in DMEM medium containing 4.5 g/L glucose (Sigma-Aldrich) and 10% fetal bovine serum under the conditions of temperature 37°C, humidity 95% and 5% CO2.
(§3) The compound was tested at a concentration ranging from 0.5 nM to 15 µM over a total of 10 concentration gradients. TLR7 or TLR8 agonists with known activity were added as positive controls, and 1 µL of DMSO was added as a negative control.
(§4) The cells were treated as follows: the cells were removed from the culture dish and centrifuged to remove the medium, and resuspended in a T-150 bottle with 10 mL of preheated PBS, 12 mL of preheated medium was added, and the cells were gently pipetted up and down and counted under a microscope. A 200,000/mL single-cell suspension was immediately prepared with medium and added to a 96-well plate at 200 µL/well (40,000/well). The final concentration of DMSO was 0.5%.
(§5) The compound was added and incubated in an incubator at 37°C, 5% CO2 for 24 hours.
(§6) A supernatant at 20 µL/well was aspirated into 180 µL of preheated Quanti-Blue at 37°C, incubated at 37°C for 1.5 hours, and detected for the absorbance (OD value) with a spectrophotometer at 650 nm. The formula for calculating the agonistic effect is as follows:
(§7) Effect % = (average OD value of the drug-administered group - average OD value of the DMSO group) / (average OD value of the positive drug group - average OD value of the DMSO group) × 100
(§8) Graphpad software was used to fit the concentration-effect curve, and EC50 was calculated. The test results are shown in Table 15 (A denotes < 250 nM, B denotes 250 nM-1 µM, C denotes 1 µM-2 µM, D denotes > 2 µM, and - denotes not listed or not tested): Table 15
In general terms: In a reporter assay the amount or activity of a reporter protein is the signal.

A further test concerns the target T2, TLR7 (Homo sapiens, UniProt Q9NYK1).
T2 construct: host or cells: HEK293 (HEK-BLUE-hTLR7)
T2 sequence (Q9NYK1 27-1049): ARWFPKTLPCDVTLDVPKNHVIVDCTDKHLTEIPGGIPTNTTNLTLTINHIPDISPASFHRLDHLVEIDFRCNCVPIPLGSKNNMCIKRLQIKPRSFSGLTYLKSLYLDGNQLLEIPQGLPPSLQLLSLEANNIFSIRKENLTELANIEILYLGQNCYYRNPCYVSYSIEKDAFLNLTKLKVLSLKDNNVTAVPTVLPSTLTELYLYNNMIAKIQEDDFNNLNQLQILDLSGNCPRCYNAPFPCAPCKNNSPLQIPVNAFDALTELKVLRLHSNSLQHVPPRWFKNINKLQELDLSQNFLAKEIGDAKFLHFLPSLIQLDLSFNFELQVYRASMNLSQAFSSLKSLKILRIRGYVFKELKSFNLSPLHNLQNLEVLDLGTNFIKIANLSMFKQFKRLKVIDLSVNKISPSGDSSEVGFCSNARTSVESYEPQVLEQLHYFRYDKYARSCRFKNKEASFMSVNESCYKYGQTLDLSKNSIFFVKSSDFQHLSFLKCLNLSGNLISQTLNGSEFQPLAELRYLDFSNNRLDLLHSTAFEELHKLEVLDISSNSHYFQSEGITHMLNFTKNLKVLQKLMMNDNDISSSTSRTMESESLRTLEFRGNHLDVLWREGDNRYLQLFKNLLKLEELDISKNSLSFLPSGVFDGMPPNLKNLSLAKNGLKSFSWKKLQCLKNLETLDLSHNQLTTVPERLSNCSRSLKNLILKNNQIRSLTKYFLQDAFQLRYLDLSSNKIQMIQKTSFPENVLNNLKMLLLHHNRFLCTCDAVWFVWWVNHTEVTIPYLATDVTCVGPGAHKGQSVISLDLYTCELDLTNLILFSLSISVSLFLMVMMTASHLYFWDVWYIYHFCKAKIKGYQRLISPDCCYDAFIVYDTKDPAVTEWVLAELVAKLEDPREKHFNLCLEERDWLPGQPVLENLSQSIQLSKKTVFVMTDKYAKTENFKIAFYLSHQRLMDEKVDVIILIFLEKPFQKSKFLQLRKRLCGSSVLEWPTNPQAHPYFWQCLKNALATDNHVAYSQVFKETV
Put plainly: HEK-BLUE-hTLR7 cell SEAP reporter assay (Quanti-Blue). Type of test: cell-based. To be noted: HEK-BLUE-hTLR7 cells, 0.5 nM to 15 µM, 24 hours. Here is the method:
as §1, §2, §3, §4, §5, §6, §7, §8

In general, EC50 refers to the concentration giving half of the maximal effect.

As to `CCCN(CCC)C(=O)C1=Cc2ccc(C3(C(=O)Nc4cnc5c(c4)CNCC5)CC3)cc2N=C(N)C1` [Compound 1, 2-amino-N,N-dipropyl-8-(1-((5,6,7,8-tetrahydro-1,6-naphthyridin-3-yl)carbamoyl)cyclopropyl)-3H-benzo[b]azepine-4-formamide], the EC50 is less than 250 nM on TLR8 and more than 2000 nM at TLR7.

As for `CCCN(CCO)C(=O)C1=Cc2ccc(C3(C(=O)Nc4cnc5c(c4)CNCC5)CC3)cc2N=C(N)C1` [Compound 2, 2-amino-N-(2-hydroxyethyl)-N-propyl-8-(1-((5,6,7,8-tetrahydro-1,6-naphthyridin-3-yl)carbamoyl)cyclopropyl)-3H-benzo[b]azepine-4-formamide], the EC50 on TLR8 was 250 to 1000 nM; at TLR7 it was more than 2000 nM.

With `CCCN(CCC)C(=O)C1=Cc2c(F)cc(C3(C(=O)Nc4cnc5c(c4)CNCC5)CC3)cc2N=C(N)C1` [Compound 3, 2-amino-6-fluoro-N,N-dipropyl-8-(1-((5,6,7,8-tetrahydro-1,6-naphthyridin-3-yl)carbamoyl)cyclopropyl)-3H-benzo[b]azepine-4-formamide], the figures for the EC50 on TLR8 and at TLR7 were less than 250 nM and more than 2000 nM, respectively.

On to `CCCN(CCO)C(=O)C1=Cc2c(F)cc(C3(C(=O)Nc4cnc5c(c4)CNCC5)CC3)cc2N=C(N)C1` [Compound 6, 2-amino-6-fluoro-N-(2-hydroxyethyl)-N-propyl-8-(1-((5,6,7,8-tetrahydro-1,6-naphthyridin-3-yl)carbamoyl)cyclopropyl)-3H-benzo[b]azepine-4-formamide], for which the EC50 at TLR8 was 250 to 1000 nM; at TLR7, more than 2000 nM.

As for `CCCN(CCO)C(=O)C1=Cc2ccc(C3(C(=O)Nc4cncc(CN)c4)CC3)cc2N=C(N)C1` [Compound 7, 2-amino-8-(1-((5-(aminomethyl)pyridin-3-yl)carbamoyl)cyclopropyl)-N-(2-hydroxyethyl)-N-propyl-3H-benzo[b]azepine-4-formamide], the EC50 at TLR8 is less than 250 nM; on TLR7, more than 2000 nM.

“(S)-1-((1-(3-(1-(2-amino-4-((2-hydroxyethyl)(propyl)carbamoyl)-3H-benzo[b]azepin-8-yl)cyclopropyl-1-amido)-7,8-dihydro-1,6-naphthyridin-6(5H)-yl)-1-oxo-5-ureidopentan-2-yl)carbamoylamino)cyclobutyl-1-carboxylic acid [Example 35]” came in with an EC50 at TLR8 of 250 to 1000 nM.

(Values after patent EP4596536A1 (Shanghai de Novo Pharmatech Co., Ltd., priority 2022, dated 2024).)
